PubChem BioAssay AID1745844 (Carcinogenic Potency Database (CPDB), 2022)
Where “and” joins values, the source holds several entries; their conditions need not be identical. Equal values may be shown once. Calls of active or inactive are those of the source. No rule for the calls is given here.

Test system: rodent lifetime carcinogenesis bioassay, tumor incidence TD50
Experiment: carcinogenic potency in animals, long-term in vivo studies, CPDB compilation (AID 1745844)
Conditions: for carcinogen call: mouse, strain Charles River CD1; for TD50: rat

## CC(=O)[O-].CC(=O)[O-].[Cd+2]
females, in drinking water, site: any site (literature study), lesion: one or several types, types not named, dosed 130 weeks, study length 130 weeks
  carcinogen call: negative (inactive)
females, in drinking water, site: lung, lesion: carcinoma, dosed 130 weeks, study length 130 weeks
  carcinogen call: negative (inactive)
males, in drinking water, site: any site (literature study), lesion: one or several types, types not named, dosed 120 weeks, study length 120 weeks
  carcinogen call: negative (inactive)
males, in drinking water, site: lung, lesion: carcinoma, dosed 120 weeks, study length 120 weeks
  carcinogen call: negative (inactive)
Strain Long-Evans BLU:(LE), both sexes, in drinking water, site: any site (literature study), lesion: malignant tumor, dosed 175 weeks, study length 175 weeks
  TD50: 5.1 mg/kg/day (inactive)
Strain Long-Evans BLU:(LE), both sexes, in drinking water, site: any site (literature study), lesion: one or several types, types not named, dosed 175 weeks, study length 175 weeks
  TD50: 1.81 mg/kg/day (inactive)
Strain Long-Evans BLU:(LE), both sexes, in drinking water, site: liver, lesion: one or several types, types not named, dosed 175 weeks, study length 175 weeks
  TD50: 37.7 mg/kg/day (inactive)

## Cc1cc(C)c(N=Nc2c(O)c(S(=O)(=O)O)cc3cc(S(=O)(=O)O)ccc23)cc1C
Strain Bethesda black, both sexes, in feed, site: liver, lesion: carcinoma, dosed 104 weeks, study length 104 weeks
  TD50: 2480 mg/kg/day
Strain Bethesda black, both sexes, in feed, site: liver, lesion: hepatocellular tumor, benign, dosed 104 weeks, study length 104 weeks
  TD50: 3540 mg/kg/day
Strain Bethesda black, both sexes, in feed, site: liver, lesion: nodular hyperplasia, dosed 104 weeks, study length 104 weeks
  TD50: 3040 mg/kg/day
Strain Bethesda black, both sexes, in feed, site: liver, lesion: several types, types named in the paper, dosed 104 weeks, study length 104 weeks
  TD50: 746 mg/kg/day
Strain Not specified, females, in feed, site: bile duct, lesion: adenoma, dosed 65 weeks, study length 65 weeks
  TD50: 1570 mg/kg/day
Strain Not specified, females, in feed, site: liver, lesion: carcinoma, dosed 65 weeks, study length 65 weeks
  TD50: 1990 mg/kg/day
Strain Not specified, males, in feed, site: bile duct, lesion: adenoma, dosed 65 weeks, study length 65 weeks
  TD50: 755 mg/kg/day
Strain Not specified, males, in feed, site: liver, lesion: carcinoma, dosed 65 weeks, study length 65 weeks
  TD50: 1240 mg/kg/day
Strain Osborne-Mendel, both sexes, in feed, site: any site (literature study), lesion: malignant tumor, dosed 104 weeks, study length 104 weeks
  TD50: 12900 mg/kg/day
Strain Osborne-Mendel, both sexes, in feed, site: liver, lesion: carcinoma, dosed 104 weeks, study length 104 weeks
  TD50: 7540 mg/kg/day
Strain Osborne-Mendel, both sexes, in feed, site: liver, lesion: hepatocellular tumor, benign, dosed 104 weeks, study length 104 weeks
  TD50: 909 mg/kg/day
Strain Osborne-Mendel, both sexes, in feed, site: liver, lesion: nodular hyperplasia, dosed 104 weeks, study length 104 weeks
  TD50: 639 mg/kg/day
Strain Wistar, both sexes, in feed, site: liver, lesion: one or several types, types not named, dosed 65 weeks, study length 65 weeks
  TD50: 225 mg/kg/day and 394 mg/kg/day
Strain Wistar, both sexes, in feed, site: liver, lesion: one or several types, types not named, dosed 70 weeks, study length 70 weeks
  TD50: 314 mg/kg/day and 420 mg/kg/day
